Several values for one entry are separate records, joined by “and”; a condition that tells them apart may be missing. Equal entries are not always repeated. Where two headings read alike, the source gives them in different places.
Columns and labels:
electrometric titration = assay type: physicochemical; details: electrometric titration in 66% dimethylformamide in water
Source text: Antibiotic A41030 factor A is a white, crystalline solid.

Propionibacterium acnes = assay: agar-dilution MIC; assay type: cell-based; details: Propionibacterium acnes 79; Table 14
Source text: Antibiotic A41030 factors A, B and C have also been tested and found to be active against a genus of anaerobic bacteria identified as Propionibacterium acnes.

Fusobacterium symbiosum = assay: agar-dilution MIC; assay type: cell-based; details: Fusobacterium symbiosum 1470; Table 14
Hemophilus influenzae = assay: agar-dilution MIC; assay type: cell-based; details: Table 17
Staph. aureus = assay: experimental bacterial infection in mice; assay type: in vivo; details: two doses subcutaneously
Method: (§1) All of the A41030 factors tested have shown in vivo antimicrobial activity against experimental bacterial infections. When two doses of test compound were administered subcutaneously to mice in illustrative infections, the activity observed is measured as an ED50 value [effective dose in mg./kg. to protect fifty percent of the test animals: See Warren Wick, et al., J. Bacteriol. 81, 233-235 (1961)].

S. pneumoniae = assay: experimental bacterial infection in mice; assay type: in vivo; details: two doses subcutaneously
Method: as §1

Clostridium septicum = assay: agar-dilution MIC; assay type: cell-based; details: Clostridium septicum 1128; Table 14
[1] = system: Bacteroides melaninogenicus; assay: agar-dilution MIC; assay type: cell-based; details: Bacteroides melaninogenicus 2736; Table 14
Clostridium perfringens = assay type: cell-based; details: Clostridium perfringens 81; Table 14
Streptococcus pneumoniae = assay: agar-dilution MIC; assay type: cell-based; details: Streptococcus pneumoniae Park I; Table 17
Source text: (§2) The agar-dilution procedure described by the International Collaborative study (ICS) group was used to determine the minimum inhibitory concentrations (MIC's).

Bacteroides fragilis = assay: agar-dilution MIC; assay type: cell-based; details: Table 14
Source text: as §2

Streptococcus pyogenes = assay: agar-dilution MIC; assay type: cell-based; details: Streptococcus pyogenes C203; Table 17
Source text: as §2

[2] = system: Streptococcus sp. (Group D); assay: agar-dilution MIC; assay type: cell-based; details: Table 17
Source text: as §2

[3] = system: Staphylococcus epidermidis; assay: agar-dilution MIC; assay type: cell-based; details: Table 17
Source text: as §2

[4] = system: Bacteroides thetaiotaomicron; assay type: cell-based; details: Bacteroides thetaiotaomicron 1438; Table 14
Source text: as §2

Bacteroides vulgatis = assay: agar-dilution MIC; assay type: cell-based; details: Bacteroides vulgatis 1211; Table 14
Eubacterium aerofaciens = assay: agar-dilution MIC; assay type: cell-based; details: Eubacterium aerofaciens 1235; Table 14
Bacteroides corrodens = assay: agar-dilution MIC; assay type: cell-based; details: Bacteroides corrodens 1874; Table 14
Staphylococcus aureus = assay: agar-dilution MIC; assay type: cell-based
solubility = assay type: physicochemical
[5] = system: Fusobacterium necrophorum; assay: agar-dilution MIC; assay type: cell-based; details: Fusobacterium necrophorum 6054A; Table 14
[6] = system: Peptostreptococcus anaerobius; assay: agar-dilution MIC; assay type: cell-based; details: Peptostreptococcus anaerobius 1428; Table 14
Clostridium difficile = assay type: cell-based
[7] = system: Peptostreptococcus intermedius; assay: agar-dilution MIC; assay type: cell-based; details: Peptostreptococcus intermedius 1264; Table 14
S. pyogenes = assay: experimental bacterial infection in mice; assay type: in vivo; details: S. pyogenes infection in mice; two doses subcutaneously
[8] = system: Peptococcus asaccharolyticus; assay: agar-dilution MIC; assay type: cell-based; details: Peptococcus asaccharolyticus 1302; Table 14
Method: The MIC values were determined by the agar-dilution method, and are recorded in Table 15, which follows.

Peptococcus prevoti = assay: agar-dilution MIC; assay type: cell-based; details: Peptococcus prevoti 1281; Table 14
Klebsiella pneumoniae = assay: agar-dilution MIC; assay type: cell-based; details: Klebsiella pneumoniae X26; Table 17
Source text: The results after reading the which follows.

[9] = Staphylococcus epidermidis EPI1
[10] = Clostridium difficile 78, Table 16
[11] = Clostridium difficile 107B, Table 16
[12] = Clostridium difficile 111F, Table 16
[13] = Clostridium difficile 1153, Table 16
[14] = Clostridium difficile 2634, Table 16
[15] = Clostridium difficile 3424-5B, Table 16
[16] = Clostridium difficile 3816, Table 16
[17] = Clostridium difficile 6890, Table 16
[18] = Clostridium difficile 8484, Table 16
[19] = Clostridium difficile A-194, Table 16
[20] = Clostridium difficile A-195, Table 16
[21] = Clostridium difficile A-196, Table 16
[22] = Clostridium difficile A-279, Table 16
[23] = Clostridium difficile A-281, Table 16
[24] = Clostridium difficile WAL-2112, Table 16
[25] = Clostridium difficile WAL-3657, Table 16
[26] = Clostridium difficile WAL-4268, Table 16

Question: For A41030 factor F, which “possibly additional pKa's” value (electrometric titration) is on record?
Answer: > 10

Question: What about the MIC (Propionibacterium acnes) of the same substance?
Answer: 1.0 µg/mL

Question: And the MIC (Fusobacterium symbiosum)?
Answer: 1.0 µg/mL

Question: What about the MIC (Hemophilus influenzae; Haemophilus influenzae 76) of the same substance?
Answer: 32 µg/mL

Question: And the MIC (Hemophilus influenzae; Haemophilus influenzae C.L.)?
Answer: 32 µg/mL

Question: And the ED50 (Staph. aureus)?
Answer: < 0.31 mg/kg

Question: And the ED50 (S. pneumoniae)?
Answer: > 5.0 mg/kg

Question: And the MIC (Clostridium septicum)?
Answer: 1.0 µg/mL

Question: And the MIC [1]?
Answer: 1.0 µg/mL

Question: What about the MIC (Clostridium perfringens) of the same substance?
Answer: 1.0 µg/mL

Question: And the MIC (Streptococcus pneumoniae)?
Answer: 2 µg/mL

Question: What about the MIC (Bacteroides fragilis; Bacteroides fragilis 111) of the same substance?
Answer: 32 µg/mL

Question: What about the MIC (Bacteroides fragilis; Bacteroides fragilis 1877) of the same substance?
Answer: 32 µg/mL

Question: And the MIC (Bacteroides fragilis; Bacteroides fragilis 1936B)?
Answer: 32 µg/mL

Question: What about the MIC (Streptococcus pyogenes) of the same substance?
Answer: 2 µg/mL

Question: And the MIC ([2]; Streptococcus sp. Group D 9960)?
Answer: 4 µg/mL

Question: And the MIC ([2]; Streptococcus sp. Group D X66)?
Answer: 4 µg/mL

Question: And the MIC [3, 9]?
Answer: 0.25 µg/mL

Question: And the MIC [4]?
Answer: 64 µg/mL

Question: And the MIC (Bacteroides vulgatis)?
Answer: 32 µg/mL

Question: And the MIC (Eubacterium aerofaciens)?
Answer: 1.0 µg/mL

Question: And the MIC (Bacteroides corrodens)?
Answer: 32 µg/mL

Question: And the MIC (Staphylococcus aureus; Staphylococcus aureus S13E, Table 17)?
Answer: 1 µg/mL

Question: And the MIC (Staphylococcus aureus; in µg/mL)?
Answer: 0.5 and 1

Question: And the “solubility (solvents)” value (solubility)?
Answer: soluble in the same solvents as factor A

Question: What about the MIC [5] of the same substance?
Answer: 1.0 µg/mL

Question: And the MIC [6]?
Answer: 32 µg/mL

Question: What about the MIC (Clostridium difficile; [10]) of the same substance?
Answer: 1.0 µg/mL

Question: And the MIC (Clostridium difficile; [11])?
Answer: 1.0 µg/mL

Question: What about the MIC (Clostridium difficile; [12]) of the same substance?
Answer: 2 µg/mL

Question: And the MIC (Clostridium difficile; [13])?
Answer: 2 µg/mL

Question: And the MIC (Clostridium difficile; [14])?
Answer: 2 µg/mL

Question: And the MIC (Clostridium difficile; [15])?
Answer: 1.0 µg/mL

Question: What about the MIC (Clostridium difficile; [16]) of the same substance?
Answer: 1.0 µg/mL

Question: And the MIC (Clostridium difficile; [17])?
Answer: 1.0 µg/mL

Question: What about the MIC (Clostridium difficile; [18]) of the same substance?
Answer: 1.0 µg/mL

Question: And the MIC (Clostridium difficile; [19])?
Answer: 1.0 µg/mL

Question: And the MIC (Clostridium difficile; [20])?
Answer: 1.0 µg/mL

Question: And the MIC (Clostridium difficile; [21])?
Answer: 2 µg/mL

Question: What about the MIC (Clostridium difficile; [22]) of the same substance?
Answer: 1.0 µg/mL

Question: And the MIC (Clostridium difficile; Clostridium difficile A-280, Table 16)?
Answer: 1.0 µg/mL

Question: And the MIC (Clostridium difficile; [23])?
Answer: 2 µg/mL

Question: And the MIC (Clostridium difficile; [24])?
Answer: 1.0 µg/mL

Question: What about the MIC (Clostridium difficile; [25]) of the same substance?
Answer: 1.0 µg/mL

Question: And the MIC (Clostridium difficile; [26])?
Answer: 1.0 µg/mL

Question: And the MIC [7]?
Answer: 1.0 µg/mL

Question: And the ED50 (S. pyogenes)?
Answer: > 5.0 mg/kg

Question: What about the MIC [8] of the same substance?
Answer: ≤ 0.25 µg/mL

Question: And the MIC (Peptococcus prevoti)?
Answer: 32 µg/mL

Question: With A41030 factor G as the substance, how does the “possibly additional pKa's” value (electrometric titration) read?
Answer: > 10.5

Question: What about the MIC (Propionibacterium acnes) of the same substance?
Answer: 1.0 µg/mL

Question: And the MIC (Klebsiella pneumoniae)?
Answer: 64 µg/mL

Question: What about the MIC (Fusobacterium symbiosum) of the same substance?
Answer: 2 µg/mL

Question: And the MIC (Hemophilus influenzae; Haemophilus influenzae 76)?
Answer: 32 µg/mL

Question: And the MIC (Hemophilus influenzae; Haemophilus influenzae C.L.)?
Answer: 32 µg/mL

Question: And the MIC (Clostridium septicum)?
Answer: 2 µg/mL

Question: And the MIC [1]?
Answer: 64 µg/mL

Question: What about the MIC (Clostridium perfringens) of the same substance?
Answer: 2 µg/mL

Question: What about the MIC (Streptococcus pneumoniae) of the same substance?
Answer: 2 µg/mL

Question: What about the MIC (Bacteroides fragilis; Bacteroides fragilis 111) of the same substance?
Answer: 32 µg/mL

Question: And the MIC (Bacteroides fragilis; Bacteroides fragilis 1877)?
Answer: 32 µg/mL

Question: What about the MIC (Bacteroides fragilis; Bacteroides fragilis 1936B) of the same substance?
Answer: 64 µg/mL

Question: What about the MIC (Streptococcus pyogenes) of the same substance?
Answer: 2 µg/mL

Question: And the MIC ([2]; Streptococcus sp. Group D 9960)?
Answer: 4 µg/mL

Question: And the MIC ([2]; Streptococcus sp. Group D X66)?
Answer: 4 µg/mL

Question: And the MIC [3, 9]?
Answer: 0.5 µg/mL

Question: What about the MIC ([3]; Staphylococcus epidermidis EPI2) of the same substance?
Answer: 0.5 µg/mL

Question: And the MIC [4]?
Answer: 64 µg/mL

Question: What about the MIC (Bacteroides vulgatis) of the same substance?
Answer: 64 µg/mL

Question: What about the MIC (Eubacterium aerofaciens) of the same substance?
Answer: 2 µg/mL

Question: And the MIC (Bacteroides corrodens)?
Answer: 32 µg/mL

Question: And the “solubility (solvents)” value (solubility)?
Answer: soluble in the same solvents as is factor A

Question: What about the MIC [5] of the same substance?
Answer: 2 µg/mL

Question: What about the MIC [6] of the same substance?
Answer: ≤ 0.5 µg/mL

Question: And the MIC (Clostridium difficile; [10])?
Answer: 1.0 µg/mL

Question: And the MIC (Clostridium difficile; [11])?
Answer: 1.0 µg/mL

Question: And the MIC (Clostridium difficile; [12])?
Answer: 1.0 µg/mL

Question: What about the MIC (Clostridium difficile; [13]) of the same substance?
Answer: 1.0 µg/mL

Question: And the MIC (Clostridium difficile; [14])?
Answer: 1.0 µg/mL

Question: And the MIC (Clostridium difficile; Clostridium difficile 2994, Table 14)?
Answer: 2 µg/mL

Question: What about the MIC (Clostridium difficile; [15]) of the same substance?
Answer: 1.0 µg/mL

Question: What about the MIC (Clostridium difficile; [16]) of the same substance?
Answer: 1.0 µg/mL

Question: And the MIC (Clostridium difficile; Clostridium difficile 3950D, Table 16)?
Answer: 1.0 µg/mL

Question: And the MIC (Clostridium difficile; [17])?
Answer: 1.0 µg/mL

Question: And the MIC (Clostridium difficile; [18])?
Answer: 1.0 µg/mL

Question: What about the MIC (Clostridium difficile; [19]) of the same substance?
Answer: 1.0 µg/mL

Question: And the MIC (Clostridium difficile; [20])?
Answer: 1.0 µg/mL

Question: And the MIC (Clostridium difficile; [21])?
Answer: 1.0 µg/mL

Question: What about the MIC (Clostridium difficile; [22]) of the same substance?
Answer: 1.0 µg/mL

Question: What about the MIC (Clostridium difficile; [23]) of the same substance?
Answer: 1.0 µg/mL

Question: And the MIC (Clostridium difficile; [24])?
Answer: 1.0 µg/mL

Question: And the MIC (Clostridium difficile; [25])?
Answer: 1.0 µg/mL

Question: And the MIC (Clostridium difficile; [26])?
Answer: 1.0 µg/mL

Question: And the MIC [7]?
Answer: 2 µg/mL

Question: And the MIC [8]?
Answer: 1.0 µg/mL

Question: And the MIC (Peptococcus prevoti)?
Answer: 2 µg/mL

From patent US4604239A, “Antibiotics” (Eli Lilly and Company, priority 1985, dated 1986)
